Measured values reported in a melting point compilation (Tetko et al.; mined from patent text by program, amines drawn as free bases though some values may be those of a salt).

Molecule `O=c1ccsn1CNc1ccc(Cl)c(Cl)c1` has a melting point of 120 to 122 °C. Work on `CC(C)(C)OC(=O)N1CCN(C(=O)c2ccc(-c3[nH]nc4c3C(=O)c3c(NC(=O)NN5CCOCC5)cccc3-4)s2)CC1` yielded a melting point of 225 to 226 °C. In the case of `CCOC(=O)c1cccc(C(OC(=O)Nc2ccc3[nH]ncc3c2)[C@@H]2CCCCN2)c1` (stereo partly drawn), the melting point is reported as 174 °C. For `O=c1c(CCCCCc2cccnc2)cc2cccnc2n1-c1cccc([N+](=O)[O-])c1`, the melting point was 155 °C. In the case of `CCSC(=O)c1c(C(F)(F)F)nc(C(F)F)c(C(=O)OC)c1N`, the melting point is reported as 72 to 74 °C. Work on `COC(=O)c1oc2cc(S)ccc2c1C` yielded a melting point of 118 to 120 °C. `Cc1c(C)c(C(CO)c2ccc(C(C)C)cc2)c(O)c(C)c1Br` (stereo not drawn) showed a melting point of 96 to 97 °C. Molecule `Brc1cncc(N2C=CCC2)c1` has a melting point of 98 to 99 °C. `O=C(NCCN1CCCCC1)c1nc(NCC(c2ccccc2)c2ccccc2)c2ncn([C@@H]3O[C@H](CO)[C@@H](O)[C@H]3O)c2n1` showed a melting point of 182 °C. For `Cc1cc(C)c2c(c1)c(-c1ccccc1Cl)c(C(=O)O)c(=O)n2C`, the melting point was 162 to 163 °C. Work on `CCOC(CN1C(=O)C2=C(c3ccc(Br)cc3)N(CC(OCC)OCC)C(=O)C2=C1c1ccc(Br)cc1)OCC` yielded a melting point of 198 to 201 °C. Work on `O=C(O)CCC(Cc1ccc(Cl)cc1)(C(=O)C=Cc1ccc(Cl)cc1)c1ccccc1` (stereo not drawn) yielded a melting point of 176 to 178 °C. With `CCc1cccc(CCC(O)c2ccccc2)c1NC(=O)CC1c2ccccc2Oc2ccccc21` (stereo not drawn) the melting point was 192 to 193 °C. Molecule `O=C(O)COc1ccc(C(=NO)c2cccs2)c2ccccc12` has a melting point of 215 °C. In the case of `COc1cc(OC)c(NC(=O)Nc2ccccc2)cc1O`, the melting point is reported as 162 to 164 °C. `CN(Cc1cccc2c1C(=O)N(C1CCC(=O)NC1=O)C2=O)C(=O)c1ccco1` (stereo not drawn) showed a melting point of 184 to 186 °C. `CNC(=O)C(C)n1cc(C)c(-c2ccccc2)n1` (stereo not drawn) showed a melting point of 111 to 112 °C. `COC1=C(OC)C(=O)C2=C(CC(CCCCCCCCO)C2)C1=O` showed a melting point of 56 to 58 °C. In the case of `O=C1c2cccc3cc4ccccc4c(c23)C(=O)N1CCCNCCCCNCCCN1C(=O)c2cccc3cc4ccccc4c(c23)C1=O`, the melting point is reported as 183 °C. With `COc1ccc(CN(C(=S)Nc2ccccc2)c2ccc(NNC(C)=O)cc2)cc1` the melting point was 126 to 128 °C. With `CC=C(C)C1CCC2C3CC(=O)C4=CC(=O)CCC4(C)C3CCC12C` (stereo not drawn) the melting point was 172 to 178 °C. For `Cc1nc(-n2cc(CNc3ccccc3)nn2)sc1C(=O)NCc1ccccc1`, the melting point was 159 to 162 °C. `COC(=O)c1nc(C)n2c1C(C)N=C(c1ccccc1)c1cc(Cl)ccc1-2` (stereo not drawn) gave a melting point of 217 to 221 °C. In the case of `OC1c2cc(OCc3ccccn3)ccc2OCC1Cc1cccnc1` (stereo not drawn), the melting point is reported as 108 to 110 °C. With `CCn1c2ccccc2c2cc(C#N)ccc21` the melting point was 183 to 185 °C. With `Oc1cccc(-n2cnc(-c3ccccc3)c2)c1` the melting point was 195 to 197 °C. Molecule `CC(C)(C)OC(=O)Nc1cc(N2CCC3(CC2)OCCO3)c(-c2ccccc2F)cc1[N+](=O)[O-]` has a melting point of 164 °C. Work on `CCOC(=O)C1=C(C)NC(CN2C(=O)c3ccccc3C2=O)=C(C(=O)OCC)C1c1ccc(F)cc1` (stereo not drawn) yielded a melting point of 144 to 145 °C. In the case of `CC1(C)CCc2c(N3CCOCC3)nc3sc4c(NCc5ccccn5)ncnc4c3c2C1`, the melting point is reported as 218 °C. `O=C1NC(=O)C2(CC(O)c3ccccc32)N1` (stereo not drawn) gave a melting point of 260 to 263 °C. Work on `CS(=O)(=O)c1ccc(Oc2ccc([N+](=O)[O-])cc2C#N)cc1` yielded a melting point of 205 to 206 °C. In the case of `CCCCC(=O)N(Cc1ccc(OC)cc1)c1cc(F)cc(-c2nnn[nH]2)c1`, the melting point is reported as 122 to 125 °C. Molecule `O=C(O)c1cc(S)cc(C(=O)O)c1` has a melting point of 240 to 246 °C. With `O=C1CSC=C2c3ccccc3C=CN12` the melting point was 104 to 106 °C. Molecule `CCON1C(C)(C)CC(OC(=O)c2ccccc2)CC1(C)C` has a melting point of 76 to 78 °C. In the case of `COc1ccc(CNc2nc(NCCCc3ccc(C(C)(C)O)cc3)nc3ncccc23)cc1OC`, the melting point is reported as 198 to 199 °C. `CCC1=NC(=NOC(=O)NC)SC1(C)CC` (stereo not drawn) gave a melting point of 88 to 90 °C. `CCOC(=O)/C(=C\Nc1cc(C)cc(C)c1)c1ccc(OC)cc1` showed a melting point of 93 to 94 °C.
